Measurements published in ChEMBL document CHEMBL1201862, “PubChem BioAssay data set” (2004).
Active and inactive are the calls of the source.

Tests used:
[1] = biological target: Voltage-dependent T-type calcium channel subunit alpha-1H (Homo sapiens, UniProt O95180); assay: human CACNA1H calcium influx blockade – cell-based, synthetic library set 1, calcium flux (AID 493022); type: functional
[2] = biological target: T1, Tyrosine-protein phosphatase non-receptor type 7 (Homo sapiens, UniProt P35236); assay: SAR analysis of chemical inhibitors of HePTP using a Fluorescent assay - Set 2. [Related pubchem assays (depositor defined):AID1059, AID1077, AID1661, AID2085, AID521]; type: functional
T1 sequence (P35236 whole entry): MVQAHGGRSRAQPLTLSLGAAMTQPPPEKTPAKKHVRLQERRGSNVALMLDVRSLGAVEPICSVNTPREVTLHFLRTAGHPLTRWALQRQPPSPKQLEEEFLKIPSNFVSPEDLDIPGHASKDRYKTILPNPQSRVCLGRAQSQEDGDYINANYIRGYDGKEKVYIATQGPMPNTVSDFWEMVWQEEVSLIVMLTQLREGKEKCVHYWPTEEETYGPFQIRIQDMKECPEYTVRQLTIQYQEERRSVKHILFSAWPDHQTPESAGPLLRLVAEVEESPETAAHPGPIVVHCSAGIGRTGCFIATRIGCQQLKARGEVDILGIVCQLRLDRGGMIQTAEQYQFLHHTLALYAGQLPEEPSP

[3] = biological target: Dual specificity protein phosphatase 3 (Homo sapiens, UniProt P51452); assay: SAR VHR1 Fluorescent Assay for In Vitro dose response studies Set 2. [Related pubchem assays (depositor defined):AID1654, AID1661, AID1878]; type: functional
Dual specificity protein phosphatase 3, sequence (P51452 whole entry): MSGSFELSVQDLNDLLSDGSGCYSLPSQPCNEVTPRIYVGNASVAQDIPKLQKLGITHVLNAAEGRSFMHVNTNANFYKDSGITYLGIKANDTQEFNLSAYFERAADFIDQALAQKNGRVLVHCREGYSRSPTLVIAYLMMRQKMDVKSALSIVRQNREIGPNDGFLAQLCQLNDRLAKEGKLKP

[4] = biological target: T2, Intestinal-type alkaline phosphatase (Homo sapiens, UniProt P09923); assay: activation of human intestinal alkaline phosphatase – biochemical, luminescent, uHTS hits, set 2, dose response (AID 488817); type: functional;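 also: potency of activators that raise enzyme activity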
T2 sequence (P09923 whole entry): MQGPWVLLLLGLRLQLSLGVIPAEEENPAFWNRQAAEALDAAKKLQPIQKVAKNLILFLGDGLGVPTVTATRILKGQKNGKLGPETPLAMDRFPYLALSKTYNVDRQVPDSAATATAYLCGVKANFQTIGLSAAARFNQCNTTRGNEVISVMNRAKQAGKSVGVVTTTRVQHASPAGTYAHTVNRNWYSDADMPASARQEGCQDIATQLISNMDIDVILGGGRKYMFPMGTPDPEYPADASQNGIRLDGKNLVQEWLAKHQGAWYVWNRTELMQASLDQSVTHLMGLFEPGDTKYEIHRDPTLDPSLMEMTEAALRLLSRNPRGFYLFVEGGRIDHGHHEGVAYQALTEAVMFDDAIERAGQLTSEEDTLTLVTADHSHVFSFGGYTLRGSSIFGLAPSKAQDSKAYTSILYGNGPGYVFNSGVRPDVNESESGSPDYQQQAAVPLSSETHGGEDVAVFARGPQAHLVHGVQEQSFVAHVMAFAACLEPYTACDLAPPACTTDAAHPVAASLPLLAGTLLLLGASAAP

[5] = biological target: T2, Intestinal-type alkaline phosphatase; assay: human intestinal alkaline phosphatase activators, dose response, biochemical, luminescence, uHTS hits (AID 463120); type: functional
[6] = biological target: T3, Alkaline phosphatase, tissue-nonspecific isozyme (Homo sapiens, UniProt P05186); assay: activation of tissue-nonspecific alkaline phosphatase – biochemical, TNAP isozyme, human IAP uHTS hits, selectivity assay for human IAP activator project, dose response (AID 488886); type: functional;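 also: potency of compounds raising TNAP activity as a selectivity check on IAP activators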
T3 sequence (P05186 whole entry): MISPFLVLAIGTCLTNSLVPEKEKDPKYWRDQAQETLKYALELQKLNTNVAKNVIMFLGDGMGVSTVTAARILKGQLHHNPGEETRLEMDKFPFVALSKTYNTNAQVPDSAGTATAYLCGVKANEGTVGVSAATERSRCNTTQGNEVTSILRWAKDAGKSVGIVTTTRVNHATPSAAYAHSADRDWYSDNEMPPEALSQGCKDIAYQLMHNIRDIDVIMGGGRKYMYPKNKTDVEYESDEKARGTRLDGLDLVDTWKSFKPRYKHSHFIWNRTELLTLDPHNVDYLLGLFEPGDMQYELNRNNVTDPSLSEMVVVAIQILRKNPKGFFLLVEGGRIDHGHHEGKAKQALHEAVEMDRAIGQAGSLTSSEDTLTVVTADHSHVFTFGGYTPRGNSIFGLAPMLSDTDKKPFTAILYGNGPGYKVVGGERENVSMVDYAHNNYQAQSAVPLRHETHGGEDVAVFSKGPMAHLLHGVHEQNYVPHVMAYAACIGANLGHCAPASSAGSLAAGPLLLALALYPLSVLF

[7] = biological target: T3, Alkaline phosphatase, tissue-nonspecific isozyme
[8] = biological target: Intestinal-type alkaline phosphatase (Mus musculus, UniProt P24822); assay: PubChem AID 488874; type: functional
Intestinal-type alkaline phosphatase (Mus musculus, UniProt P24822), sequence (P24822 whole entry): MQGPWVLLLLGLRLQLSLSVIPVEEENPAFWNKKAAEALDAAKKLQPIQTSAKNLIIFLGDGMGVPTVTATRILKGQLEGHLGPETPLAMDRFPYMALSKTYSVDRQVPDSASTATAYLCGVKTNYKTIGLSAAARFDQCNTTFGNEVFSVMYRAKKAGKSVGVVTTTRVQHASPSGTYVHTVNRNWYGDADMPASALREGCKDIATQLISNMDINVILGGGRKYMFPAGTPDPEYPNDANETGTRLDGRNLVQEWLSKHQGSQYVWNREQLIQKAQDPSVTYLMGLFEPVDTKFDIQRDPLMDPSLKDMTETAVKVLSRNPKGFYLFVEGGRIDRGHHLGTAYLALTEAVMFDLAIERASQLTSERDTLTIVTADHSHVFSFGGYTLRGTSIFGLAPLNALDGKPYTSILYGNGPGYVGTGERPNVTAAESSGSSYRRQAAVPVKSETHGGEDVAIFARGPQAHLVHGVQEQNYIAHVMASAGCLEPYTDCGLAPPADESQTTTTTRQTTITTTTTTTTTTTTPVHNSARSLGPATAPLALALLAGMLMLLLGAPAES

Saccharomyces cerevisiae = assay: S. cerevisiae Caspase-1/ASC signal blockers IC50, NALP1 inhibitor project selectivity test (AID 488863); type: functional, organism-based
[9] = biological target: NACHT, LRR and PYD domains-containing protein 1 (Homo sapiens, UniProt Q9C000); assay: NALP1 inhibitors in yeast, dose response, luminescent (AID 488860); type: functional
NACHT, LRR and PYD domains-containing protein 1, sequence (Q9C000 1-1212 limits assumed): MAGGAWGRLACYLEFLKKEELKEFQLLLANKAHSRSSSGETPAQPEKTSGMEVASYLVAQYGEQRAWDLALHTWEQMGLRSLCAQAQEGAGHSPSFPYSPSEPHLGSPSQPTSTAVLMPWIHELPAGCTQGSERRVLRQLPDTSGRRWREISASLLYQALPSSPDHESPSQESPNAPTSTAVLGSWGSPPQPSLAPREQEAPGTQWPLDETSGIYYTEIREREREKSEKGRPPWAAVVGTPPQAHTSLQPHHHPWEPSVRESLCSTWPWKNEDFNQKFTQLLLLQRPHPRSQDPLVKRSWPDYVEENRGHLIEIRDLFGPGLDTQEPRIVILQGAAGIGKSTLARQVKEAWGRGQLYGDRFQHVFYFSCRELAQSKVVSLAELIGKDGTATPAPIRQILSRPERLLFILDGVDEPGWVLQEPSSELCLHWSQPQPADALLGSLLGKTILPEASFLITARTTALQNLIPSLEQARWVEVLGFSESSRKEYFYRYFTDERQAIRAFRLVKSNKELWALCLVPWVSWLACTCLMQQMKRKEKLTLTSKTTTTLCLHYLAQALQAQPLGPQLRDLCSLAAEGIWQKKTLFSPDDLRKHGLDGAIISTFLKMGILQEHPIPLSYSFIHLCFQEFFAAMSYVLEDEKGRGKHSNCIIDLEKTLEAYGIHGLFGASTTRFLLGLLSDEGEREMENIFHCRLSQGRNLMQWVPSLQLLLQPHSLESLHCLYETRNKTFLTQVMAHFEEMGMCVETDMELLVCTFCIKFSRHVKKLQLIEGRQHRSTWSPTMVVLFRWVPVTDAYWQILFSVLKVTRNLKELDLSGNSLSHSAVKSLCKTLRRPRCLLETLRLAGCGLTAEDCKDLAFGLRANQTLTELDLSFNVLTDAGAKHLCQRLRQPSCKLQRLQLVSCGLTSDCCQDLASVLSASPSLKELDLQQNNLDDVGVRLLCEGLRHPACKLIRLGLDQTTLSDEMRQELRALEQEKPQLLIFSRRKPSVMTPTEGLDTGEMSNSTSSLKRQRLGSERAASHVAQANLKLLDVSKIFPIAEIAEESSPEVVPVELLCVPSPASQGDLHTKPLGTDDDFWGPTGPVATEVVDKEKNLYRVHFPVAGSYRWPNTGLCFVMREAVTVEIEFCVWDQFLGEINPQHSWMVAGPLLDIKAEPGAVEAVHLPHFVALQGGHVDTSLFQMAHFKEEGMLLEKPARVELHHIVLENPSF
NACHT, LRR and PYD domains-containing protein 1, sequence (Q9C000 1213-1473 limits assumed): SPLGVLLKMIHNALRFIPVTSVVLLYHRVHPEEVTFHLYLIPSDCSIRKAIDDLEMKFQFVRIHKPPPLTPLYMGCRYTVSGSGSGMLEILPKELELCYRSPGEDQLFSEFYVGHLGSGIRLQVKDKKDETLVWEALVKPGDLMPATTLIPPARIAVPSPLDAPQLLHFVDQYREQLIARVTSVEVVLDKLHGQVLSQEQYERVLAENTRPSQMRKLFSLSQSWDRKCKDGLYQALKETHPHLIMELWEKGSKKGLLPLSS

[10] = biological target: T4, Corticotropin-releasing factor receptor 2/Corticotropin-releasing factor-binding protein (Homo sapiens, UniProt P24387+Q13324); assay: activators of CRF receptor 2 with binding protein – uHTS hits, confirmation (AID 602473); type: functional; settings: read-out: EC50_Mean
T4 sequence (Q13324 whole entry): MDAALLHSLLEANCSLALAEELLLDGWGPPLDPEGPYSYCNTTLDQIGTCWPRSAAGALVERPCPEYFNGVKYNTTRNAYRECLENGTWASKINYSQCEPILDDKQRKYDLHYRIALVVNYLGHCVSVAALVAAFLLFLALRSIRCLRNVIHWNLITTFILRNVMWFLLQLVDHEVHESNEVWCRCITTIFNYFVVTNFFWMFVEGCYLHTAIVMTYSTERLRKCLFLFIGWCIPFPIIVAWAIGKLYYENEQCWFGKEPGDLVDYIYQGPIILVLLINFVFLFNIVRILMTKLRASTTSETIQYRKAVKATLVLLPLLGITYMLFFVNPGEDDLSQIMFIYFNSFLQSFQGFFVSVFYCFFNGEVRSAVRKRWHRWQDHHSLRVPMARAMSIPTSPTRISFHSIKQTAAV
T4 sequence (P24387 whole entry): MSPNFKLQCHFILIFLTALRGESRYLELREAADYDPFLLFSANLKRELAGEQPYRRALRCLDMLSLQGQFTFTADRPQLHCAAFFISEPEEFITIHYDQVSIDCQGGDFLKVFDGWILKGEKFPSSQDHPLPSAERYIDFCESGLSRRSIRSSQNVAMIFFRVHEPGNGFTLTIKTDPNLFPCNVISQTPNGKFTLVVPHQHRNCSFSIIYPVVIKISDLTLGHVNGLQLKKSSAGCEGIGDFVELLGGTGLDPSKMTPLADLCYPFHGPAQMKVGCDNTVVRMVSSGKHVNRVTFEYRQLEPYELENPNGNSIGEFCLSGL

[11] = A549 cell cytotoxicity, dose response, cytotoxicity control, plate reader, cherry-pick, antagonist series (AID 743412); type: functional, cell-based
[12] = viability loss in HEK293 cells – cell-based, plate reader, cherry-picked samples, cytotoxicity control, dose response (AID 743446); type: functional
[13] = biological target: T5, Melanin-concentrating hormone receptor 1 (Homo sapiens, UniProt Q99705); assay: Late-stage fluorescence-based counterscreen for antagonists of the G-protein coupled receptor 7 (GPR7): cell-based dose response assay to identify antagonists of the melanin-concentrating hormone receptor 1 (MCHR1). [Related pubchem assays (depositor defined):AID1861, AID1880, AID1952, AID2148, AID2251, AID2257, AID485339]; type: functional
T5 sequence (Q99705 whole entry): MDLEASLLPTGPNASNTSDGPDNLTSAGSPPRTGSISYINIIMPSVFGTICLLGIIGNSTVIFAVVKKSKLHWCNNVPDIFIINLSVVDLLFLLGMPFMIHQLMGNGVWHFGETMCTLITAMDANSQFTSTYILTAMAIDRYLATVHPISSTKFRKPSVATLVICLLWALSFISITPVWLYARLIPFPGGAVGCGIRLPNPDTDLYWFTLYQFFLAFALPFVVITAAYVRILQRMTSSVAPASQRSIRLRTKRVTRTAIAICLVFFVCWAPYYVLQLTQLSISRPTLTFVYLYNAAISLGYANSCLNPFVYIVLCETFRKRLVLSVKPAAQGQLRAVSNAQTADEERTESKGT

[14] = biological target: T5, Melanin-concentrating hormone receptor 1; assay: Fluorescence-based counterscreen for antagonists of the G-protein coupled receptor 7 (GPR7): cell-based high throughput dose response assay to identify antagonists of the melanin-concentrating hormone receptor 1 (MCHR1).; type: functional
[15] = biological target: T6, Neuropeptides B/W receptor type 1 (Homo sapiens, UniProt P48145); assay: Fluorescence-based dose response cell-based high throughput screening assay to identify antagonists of the G-protein coupled receptor 7 (GPR7). [Related pubchem assays: 1952 (Screening assay (GPR7 antagonists).), 1880 (Summary AID.)]; type: functional
T6 sequence (P48145 whole entry): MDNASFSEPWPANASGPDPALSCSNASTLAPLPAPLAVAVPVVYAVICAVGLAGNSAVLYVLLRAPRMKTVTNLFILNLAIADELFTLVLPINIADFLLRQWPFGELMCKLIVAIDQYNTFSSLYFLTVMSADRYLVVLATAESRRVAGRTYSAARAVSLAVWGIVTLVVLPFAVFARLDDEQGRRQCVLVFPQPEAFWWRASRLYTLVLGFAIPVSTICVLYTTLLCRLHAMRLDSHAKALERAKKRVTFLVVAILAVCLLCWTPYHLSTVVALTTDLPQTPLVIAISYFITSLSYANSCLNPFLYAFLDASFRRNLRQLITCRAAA

[16] = toxicity toward HepG2 liver cells – cell-based, plate reader, cherry-pick, antagonist series, cytotoxicity control, dose response (AID 743416); type: functional
[17] = biological target: T6, Neuropeptides B/W receptor type 1; assay: human NPBW1 receptor blockade, IC50 – cell-based, fluorescence, dose response, late-stage follow-up (AID 463251); type: functional

O=C(COc1ccccc1F)Nc1nnc(-c2ccc3ccccc3c2)o1
EC50 [1]: 1.8 µM (active)

COc1cc(C(=S)NCc2cccc(F)c2)ccc1O
IC50 [2]: 23.4 µM (active)
IC50 [3]: 32.8 µM (active)

CC(C)C(=O)NC(=S)Nc1ccccc1C(=O)Nc1ccccc1
EC50 [4]: 7.62 µM (active)
EC50 [5]: 6.41 µM (active)
EC50 [6]: 10.2 µM (active)
EC50 [7]: > 100 µM (not active)
IC50 [8]: 50 µM (active)

COc1ccc(C2=C/C(=C/c3cccnc3)C(=O)O2)cc1OC
IC50 (Saccharomyces cerevisiae): > 100 µM (inactive)
IC50 [9]: > 100 µM (inactive)
EC50 [10]: 3.91 µM (active)

O=[N+]([O-])c1cc(S(=O)(=O)N2CCCCCC2)ccc1Cl
AC50 [11]: > 52 µM (inactive)
AC50 [12]: > 52 µM (inactive)
IC50 [13]: 10.1 µM (inactive)
IC50 [14]: 8.01 µM (active)
IC50 [15]: 2.88 µM (active)
AC50 [16]: > 52 µM (inactive)
IC50 [17]: 5.8 µM (active)
